PubChem BioAssay AID1949 (Southern Research Institute, 2009)
Values after ≈ are worked out from the molar mass of the structure shown. Records with an inconclusive call do not appear. Active and inactive are the calls of the source. The rule behind the calls is not given here.

Tested on: M. tuberculosis H37Rv growth inhibition
Test: Mycobacterium tuberculosis H37Rv growth inhibition, cell based, confirmatory dose response (AID 1949);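 note: bacteria grown 7 days with compound before Alamar blue readout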

Row | SMILES | IC50
1 | CC(C(=O)OCc1ccccc1)n1cnc2scc(-c3ccc(Br)cc3)c2c1=O (stereo not drawn) | 1.51 µg/mL (≈ 3.22 µM)
2 | COc1cccc(N2CCN(C(=O)Nc3ccc(Cl)c(Cl)c3)CC2)c1 | 9.41 µg/mL (≈ 24.7 µM)
3 | Cn1c(=O)c([N+](=O)[O-])c(Nc2cccc(C(F)(F)F)c2)c2ccccc21 | 15.4 µg/mL (≈ 42.3 µM)
4 | COc1ccc(-c2oc3ncn(CCCn4ccnc4)c(=N)c3c2-c2ccc(OC)cc2)cc1 | 3.79 µg/mL (≈ 8.32 µM)
5 | CCOC(=O)C(C)Oc1noc2nc(-c3ccccc3)ccc12 (stereo not drawn) | 3.92 µg/mL (≈ 12.6 µM)
6 | CCOC(=O)CSc1nc(C#N)c(SCC(=O)OCC)s1 | 2.29 µg/mL (≈ 6.61 µM)
7 | COc1ccc(C(=O)O/N=C(\N)Cc2ccc(Cl)c(Cl)c2)cc1OC | 9.32 µg/mL (≈ 24.3 µM)
8 | Cc1ccc(Cl)cc1N1CCN(C(=O)CC23CC4CC(CC(C4)C2)C3)CC1 | 4.43 µg/mL (≈ 11.4 µM)
9 | O=C(CCN1CCc2ccccc2CC1)c1ccc2c(c1)OCCO2 | 8.36 µg/mL (≈ 24.8 µM)
10 | CCN(CC)CCn1nc2c3c(cccc3c1=O)-c1ccccc1-2 | 5.48 µg/mL (≈ 17.2 µM)
11 | COC(=O)CSc1nc2sc3c(c2c(=O)n1Cc1ccccc1)CCC(C(C)(C)C)C3 (stereo not drawn) | > 50 µg/mL (inactive)
12 | Cc1ccc(NC(=S)Nc2cc(C)[nH]n2)c(Cl)c1 | 22.2 µg/mL (≈ 79.2 µM)
13 | Cc1cc(Cl)ccc1NC(=O)CCc1ccc(S(=O)(=O)NCC(C)C)cc1 | 0.53 µg/mL (≈ 1.3 µM)
14 | CCOC(=O)COc1ccc2c(=O)c(-c3ccc(OC)cc3)c(C)oc2c1 | 1.29 µg/mL (≈ 3.5 µM)
15 | CCc1ccc(OCC(=O)Nc2cccc(F)c2)cc1 | 1.74 µg/mL (≈ 6.37 µM)
16 | CCOC(=O)CSC1=C(C#N)C(c2ccccc2[N+](=O)[O-])C(C(C)=O)=C(C)N1 (stereo not drawn) | 1.41 µg/mL (≈ 3.51 µM)
17 | COC(=O)COc1cccc(NC(=O)c2cccc(C)c2)c1 | 2.85 µg/mL (≈ 9.52 µM)
18 | CC1=Nc2c(ccc3cccnc23)C1(C)C | 0.19 µg/mL (≈ 0.904 µM)
19 | CCOc1cc(CNCc2ccccc2OCc2ccccc2)cc(Cl)c1OCC | 1.94 µg/mL (≈ 4.55 µM)
20 | COc1ccc(C(=O)Oc2ccc(C(=O)OCc3ccccc3)cc2)cc1OC | 1.39 µg/mL (≈ 3.54 µM)

Row | SMILES | IC50
21 | CN=c1c([N+](=O)[O-])nn(-c2ccccc2)n1O | > 50 µg/mL (inactive)
22 | CNCc1ccc(OCc2ccc(Cl)cc2Cl)cc1 | 4.85 µg/mL (≈ 16.4 µM)
23 | c1ccc2cc(OCCCn3ccnc3)ccc2c1 | 10.3 µg/mL (≈ 40.9 µM)
24 | O=C1C(=O)N(Cc2ccccc2Cl)c2ccc(Cl)cc21 | 9.36 µg/mL (≈ 30.6 µM)
25 | CC(NC(=O)Nc1cccc(C(F)(F)F)c1)C1CC2CCC1C2 (stereo not drawn) | < 0.1 µg/mL
26 | COc1ccc2[nH]cc(CCNC(=S)Nc3ccc(Nc4ccccc4)cc3)c2c1 | 2.9 µg/mL (≈ 6.96 µM)
27 | Cc1nc2c(-c3ccccc3)c[nH]n2c(=O)c1Cc1ccccc1 | > 50 µg/mL (inactive)
28 | CC(Nc1nc(N2CCCCC2)nc2ccccc12)c1ccccc1 (stereo not drawn) | 2.29 µg/mL (≈ 6.89 µM)
29 | Cc1ccc(OCCCCNCCc2ccccc2)c(C)c1 | 9.13 µg/mL (≈ 30.7 µM)
30 | O=C(CSc1ccc([N+](=O)[O-])cn1)Nc1ccc2c(c1)OCO2 | 7.47 µg/mL (≈ 22.4 µM)
31 | CCOC(=O)c1c(NC(=S)N2CCN(C(=O)C3CCCO3)CC2)sc(C)c1-c1ccccc1 (stereo not drawn) | 6.67 µg/mL (≈ 13.7 µM)
32 | Cc1ccc(NC(=O)CSc2ccc(F)cc2)cc1 | 12.3 µg/mL (≈ 44.9 µM)
33 | CCn1c(/C=C/c2ccc(F)cc2)nc2ccccc21 | 8.17 µg/mL (≈ 30.7 µM)
34 | c1ccc(CCc2ccccc2-c2nc(-c3ccncc3)no2)cc1 | 8.77 µg/mL (≈ 26.8 µM)
35 | COc1cc(OC)cc(C(=O)NC(=S)N2CCCCCC2)c1 | 2.83 µg/mL (≈ 8.78 µM)
36 | Cc1cc(OC(=O)C2CC2)c2c3c(c(=O)oc2c1)CCCC3 | 1.44 µg/mL (≈ 4.83 µM)
37 | O=c1c2ccccc2[nH]c(=S)n1CCCN1CCN(c2cccc(Cl)c2)CC1 | 2.46 µg/mL (≈ 5.93 µM)
38 | Cc1ccc(-c2noc(CNc3cccc(Cl)c3)n2)cc1 | 13.9 µg/mL (≈ 46.4 µM)
39 | Cc1ccc(NC(=S)c2ccccn2)cc1 | 0.99 µg/mL (≈ 4.34 µM)
40 | COc1ccccc1C(=O)Oc1ccc2c(c1)C(C)CC(C)(C)N2 (stereo not drawn) | 4.97 µg/mL (≈ 15.3 µM)

Row | SMILES | IC50
41 | CCOC(=O)c1c(NC(=O)c2cc3ccccc3oc2=O)sc(C)c1-c1ccccc1 | > 50 µg/mL (inactive)
42 | Nc1ncnc2c1[nH]c(=S)n2CCOc1cccc2ccccc12 | 10.9 µg/mL (≈ 32.5 µM)
43 | CCOc1ccccc1C(=O)Nc1cc(Cl)ccc1O | 4.22 µg/mL (≈ 14.5 µM)
44 | Cc1sc(NC(=O)c2cc3ccccc3oc2=O)c(C(=O)OC(C)C)c1C | 0.66 µg/mL (≈ 1.71 µM)
45 | O=c1[nH]c(/C=C/c2cccc3ccccc23)nc(O)c1[N+](=O)[O-] | 2.8 µg/mL (≈ 9.05 µM)
46 | CCOC(=O)c1c(NC(=O)COc2ccccc2C)sc(C(=O)N2CCCC2)c1C | > 50 µg/mL (inactive)
47 | CCc1cc2c(=O)c(-c3ccc4c(c3)OCCCO4)coc2cc1OC(C)C(=O)OC (stereo not drawn) | 39.9 µg/mL (≈ 94.1 µM)
48 | CC1=Nc2ccccc2N=C(N)C1c1ccc(Cl)cc1 (stereo not drawn) | 15 µg/mL (≈ 52.8 µM)
49 | CCN(c1ccccc1)S(=O)(=O)c1ccc(NC(=O)Nc2ccc(Cl)cc2)cc1 | 5.77 µg/mL (≈ 13.4 µM)
50 | COC(=O)Cc1c(C)c2ccc(OCC(=O)c3ccc(Cl)s3)cc2oc1=O | 2.49 µg/mL (≈ 6.12 µM)
51 | CCOC(=O)c1ccc(NC(=S)Nc2cccc([N+](=O)[O-])c2)cc1 | 0.23 µg/mL (≈ 0.666 µM)
52 | O=C(Nc1ccccc1)Nc1ccc(S(=O)(=O)Nc2cccc(C(F)(F)F)c2)cc1 | 2.28 µg/mL (≈ 5.24 µM)
53 | CCOC(=O)c1c(NC(=O)CNC(C)CC)sc2c1CCCC2 (stereo not drawn) | 17.4 µg/mL (≈ 51.4 µM)
54 | CC(C)(C)c1ccc(C(=O)Nc2ccc(NC(=S)NC(=O)c3cccs3)cc2)cc1 | 0.46 µg/mL (≈ 1.05 µM)
55 | CCN(CC)c1ccc(NC(=S)NCc2ccc(Cl)cc2)cc1 | 3.18 µg/mL (≈ 9.14 µM)
56 | CCc1ccc(C2C3=C(CC(C)(C)CC3=O)NC3=C2C(=O)c2ccccc23)cc1 (stereo not drawn) | 4.44 µg/mL (≈ 11.6 µM)
57 | O=S1(=O)C=C(Sc2nnc(-c3ccncc3)o2)c2ccccc21 | 1.33 µg/mL (≈ 3.87 µM)
58 | Cc1ccc(Cl)cc1N1CCN(CC(O)COc2ccc(Cl)cc2)CC1 (stereo not drawn) | 4.57 µg/mL (≈ 11.6 µM)
